Data reported in patent US10377985B2, “Neural progenitor cell differentiation” (priority 2013, dated 2019).
Several values for one entry are separate records, joined by “and”; a condition that tells them apart may be missing. Equal values may be shown once. Entries after “also recorded” stand apart in the source; their conditions may differ.

What was measured:
[1] = system: native rabbit intestinal tissue; assay: Electrical field stimulation induced relaxation, real-time force generation
[2] = system: tissue engineered innervated intestinal smooth muscle sheets; assay: as above; type: cell-based, rabbit
[3] = system: native rabbit intestinal tissue
[4] = system: tissue engineered innervated intestinal smooth muscle sheets; type: cell-based, rabbit
[5] = system: native rabbit intestinal tissue; remark: listed apart in the source

COC(=O)[C@@H](N)CCCNC(=N)N[N+](=O)[O-].Cl [L-NAME, Nω-Nitro-L-arginine methyl ester hydrochloride]
inhibition of EFS-induced relaxation with L-NAME ([1]; L-NAME 300 μM pre-treatment, hydrochloride): 78±2.9% and ~78%
inhibition at 300 µM ([1]; Oryctolagus cuniculus, L-NAME 300 μM pre-treatment, read-out: inhibition of EFS-induced relaxation with L-NAME): 78 ± 2.85%

[D-p-Cl-Phe6, Leu17]-Vasoactive Intestinal Peptide [VIP-Ra]
inhibition of EFS-induced relaxation with VIP-Ra ([1]; VIP-Ra 2 μM pre-treatment): 73.32±3.23%

NC1=N[C@H](O)[C@H]2[C@H]3O[C@]4(O)O[C@@H]([C@@H](O)[C@@]2(N1)[C@@H]4O)[C@]3(O)CO [TTX, tetrodotoxin]
effect of TTX pre-treatment on EFS-induced relaxation [2]: inhibited entirely
inhibition of Ach-induced contraction with TTX [3]: 72.73±3.66% and 72.73±3.7%
effect of TTX pre-treatment on KCl-induced contraction [4]: unaffected; also recorded: did not inhibit

CC(=O)OCC[N+](C)(C)C [Ach, Acetylcholine]
area under the curve of Ach-induced contraction ([3]; 1 μM Ach, native tissue): 70448±5876 AU
peak Ach-induced contraction ([3]; 1 μM Ach, native tissue): 342.6±3.15 μN

[Cl-].[K+] [KCl, Potassium chloride]
peak KCl-induced contraction [5]: 373.5±10.63 μN and 373.3±10.63 μN
